Data as given in PubChem BioAssay AID2060487 (Molecular Pharmacology Branch, DTP, NCI, 2025).
Values belong to the compound of their own block, whether it stands above or below them.

Tested on: 997537-175-T-J1-PDC complex spheroid viability
Assay: Anticancer human tumor 997537-175-T-J1-PDC patient-derived colon adenocarcinoma cell line growth inhibition [GQUAD]
Settings: for IC50: curve of first compound; for viability, T/C: stronger effect = lower value
Outline: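 Viability of tumor cells grown as complex spheroids with endothelial and stromal cells, exposed to drug combinations. Top concentration at or near clinical Cmax (else 10 microM), diluted in half-log increments.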

[1] = second compound 0.0316 µM, first compound 0.0316 µM
[2] = second compound 0.0316 µM, first compound 0.1 µM
[3] = second compound 0.0316 µM, first compound 0.316 µM
[4] = second compound 0.0316 µM, first compound 1 µM
[5] = second compound 0.0316 µM, first compound 3.16 µM
[6] = second compound 0.0316 µM, first compound 10 µM
[7] = second compound 0.1 µM, first compound 0.0316 µM
[8] = second compound 0.1 µM, first compound 0.1 µM
[9] = second compound 0.1 µM, first compound 0.316 µM
[10] = second compound 0.1 µM, first compound 1 µM
[11] = second compound 0.1 µM, first compound 3.16 µM
[12] = second compound 0.1 µM, first compound 10 µM
[13] = second compound 0.316 µM, first compound 0.0316 µM
[14] = second compound 0.316 µM, first compound 0.1 µM
[15] = second compound 0.316 µM, first compound 0.316 µM
[16] = second compound 0.316 µM, first compound 1 µM
[17] = second compound 0.316 µM, first compound 3.16 µM
[18] = second compound 0.316 µM, first compound 10 µM
[19] = second compound 1 µM, first compound 0.0316 µM
[20] = second compound 1 µM, first compound 0.1 µM
[21] = second compound 1 µM, first compound 0.316 µM
[22] = second compound 1 µM, first compound 1 µM
[23] = second compound 1 µM, first compound 3.16 µM
[24] = second compound 1 µM, first compound 10 µM
[25] = second compound 3.16 µM, first compound 0.0316 µM
[26] = second compound 3.16 µM, first compound 0.1 µM
[27] = second compound 3.16 µM, first compound 0.316 µM
[28] = second compound 3.16 µM, first compound 1 µM
[29] = second compound 3.16 µM, first compound 3.16 µM
[30] = second compound 3.16 µM, first compound 10 µM
[31] = second compound 10 µM, first compound 0.0316 µM
[32] = second compound 10 µM, first compound 0.1 µM
[33] = second compound 10 µM, first compound 0.316 µM
[34] = second compound 10 µM, first compound 1 µM
[35] = second compound 10 µM, first compound 3.16 µM
[36] = second compound 10 µM, first compound 10 µM
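Note: spheroids exposed to the agents for 7 days.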
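Throughout, for viability, T/C: 100% = DMSO vehicle control viability.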

IC50 (second compound 0.0316 µM): > 10 µM | IC50 (second compound 0.1 µM): > 10 µM | IC50 (second compound 0.316 µM): 8.33 µM | IC50 (second compound 1 µM): 7.33 µM | IC50 (second compound 3.16 µM): 5.89 µM | IC50 (second compound 10 µM): 6.25 µM
SMILES: COc1cccc2c1C(=O)c1c(O)c3c(c(O)c1C2=O)CC(O)(C(=O)CO)CC3OC1CC(N)C(O)C(C)O1 (stereo not drawn) + Cc1cnc(CNC(=O)c2c(=O)c3ccc(N4CCCN(C)CC4)nc3n3c2sc2ccccc23)cn1
viability, T/C [1]: 112% | viability, T/C [2]: 74.6% | viability, T/C [3]: 97.5% | viability, T/C [4]: 93.6% | viability, T/C [5]: 80% | viability, T/C [6]: 52.8% | viability, T/C [7]: 107% | viability, T/C [8]: 76.5% | viability, T/C [9]: 94% | viability, T/C [10]: 90.8% | viability, T/C [11]: 86.5% | viability, T/C [12]: 55.2% | viability, T/C [13]: 82.3% | viability, T/C [14]: 90.4% | viability, T/C [15]: 115% | viability, T/C [16]: 98.5% | viability, T/C [17]: 87% | viability, T/C [18]: 42.5% | viability, T/C [19]: 91.5% | viability, T/C [20]: 68.4% | viability, T/C [21]: 116% | viability, T/C [22]: 106% | viability, T/C [23]: 88% | viability, T/C [24]: 36% | viability, T/C [25]: 69.7% | viability, T/C [26]: 81.3% | viability, T/C [27]: 78% | viability, T/C [28]: 103% | viability, T/C [29]: 93.4% | viability, T/C [30]: 20.1% | viability, T/C [31]: 75.8% | viability, T/C [32]: 77.4% | viability, T/C [33]: 109% | viability, T/C [34]: 91.9% | viability, T/C [35]: 93.2% | viability, T/C [36]: 22.7%

SMILES: O=c1[nH]cc(F)c(=O)[nH]1 + CN(C)c1ccc(Nc2c3ccc(NC(=O)CCN4CCCC4)cc3nc3cc(NC(=O)CCN4CCCC4)ccc23)cc1
IC50 (second compound 0.0316 µM): > 10 µM | IC50 (second compound 0.1 µM): > 10 µM | IC50 (second compound 0.316 µM): > 10 µM | IC50 (second compound 1 µM): > 10 µM | IC50 (second compound 3.16 µM): > 10 µM | IC50 (second compound 10 µM): > 10 µM | viability, T/C [1]: 94.8% | viability, T/C [2]: 90.6% | viability, T/C [3]: 93.8% | viability, T/C [4]: 75.5% | viability, T/C [5]: 78.7% | viability, T/C [6]: 59.7% | viability, T/C [7]: 92.8% | viability, T/C [8]: 83% | viability, T/C [9]: 87.9% | viability, T/C [10]: 66.7% | viability, T/C [11]: 99.8% | viability, T/C [12]: 84.4% | viability, T/C [13]: 76.3% | viability, T/C [14]: 85.6% | viability, T/C [15]: 76.9% | viability, T/C [16]: 76.7% | viability, T/C [17]: 99.3% | viability, T/C [18]: 87.9% | viability, T/C [19]: 76.3% | viability, T/C [20]: 65.8% | viability, T/C [21]: 87.9% | viability, T/C [22]: 79.3% | viability, T/C [23]: 81.5% | viability, T/C [24]: 99.3% | viability, T/C [25]: 64.2% | viability, T/C [26]: 92.6% | viability, T/C [27]: 86.3% | viability, T/C [28]: 90.7% | viability, T/C [29]: 102% | viability, T/C [30]: 87.4% | viability, T/C [31]: 73.3% | viability, T/C [32]: 79% | viability, T/C [33]: 85.8% | viability, T/C [34]: 80% | viability, T/C [35]: 97% | viability, T/C [36]: 63.5%

SMILES: Nc1ccn(C2OC(CO)C(O)C2(F)F)c(=O)n1 (stereo not drawn) + Cc1[nH]c2ccc(F)cc2c1-c1nc2c3cccnc3c3ncccc3c2[nH]1
IC50 (second compound 0.0316 µM): > 10 µM | IC50 (second compound 0.1 µM): > 10 µM | IC50 (second compound 0.316 µM): > 10 µM | IC50 (second compound 1 µM): > 10 µM | IC50 (second compound 3.16 µM): > 10 µM | IC50 (second compound 10 µM): > 10 µM | viability, T/C [1]: 106% | viability, T/C [2]: 82.5% | viability, T/C [3]: 98.7% | viability, T/C [4]: 80.1% | viability, T/C [5]: 86.2% | viability, T/C [6]: 97.4% | viability, T/C [7]: 107% | viability, T/C [8]: 87.2% | viability, T/C [9]: 91.5% | viability, T/C [10]: 74.2% | viability, T/C [11]: 87.4% | viability, T/C [12]: 87.5% | viability, T/C [13]: 99.2% | viability, T/C [14]: 84.6% | viability, T/C [15]: 84.1% | viability, T/C [16]: 73.9% | viability, T/C [17]: 90.4% | viability, T/C [18]: 70.2% | viability, T/C [19]: 103% | viability, T/C [20]: 96.3% | viability, T/C [21]: 94.7% | viability, T/C [22]: 98.2% | viability, T/C [23]: 82.6% | viability, T/C [24]: 93.5% | viability, T/C [25]: 77.4% | viability, T/C [26]: 69% | viability, T/C [27]: 76% | viability, T/C [28]: 73.1% | viability, T/C [29]: 83% | viability, T/C [30]: 84.8% | viability, T/C [31]: 78.3% | viability, T/C [32]: 81.4% | viability, T/C [33]: 90.4% | viability, T/C [34]: 87.2% | viability, T/C [35]: 80.1% | viability, T/C [36]: 87.5%

SMILES: CC(C)n1c(=O)n(C)c2cnc3cc(F)c(-c4ccc(OCCCN5CCCCC5)nc4)cc3c21 + Cc1[nH]c2ccc(F)cc2c1-c1nc2c3cccnc3c3ncccc3c2[nH]1
IC50 (second compound 0.0316 µM): > 10 µM | IC50 (second compound 0.1 µM): > 10 µM | IC50 (second compound 0.316 µM): > 10 µM | IC50 (second compound 1 µM): > 10 µM | IC50 (second compound 3.16 µM): > 10 µM | IC50 (second compound 10 µM): > 10 µM | viability, T/C [1]: 117% | viability, T/C [2]: 104% | viability, T/C [3]: 112% | viability, T/C [4]: 98.2% | viability, T/C [5]: 113% | viability, T/C [6]: 106% | viability, T/C [7]: 121% | viability, T/C [8]: 97.6% | viability, T/C [9]: 97.6% | viability, T/C [10]: 95.6% | viability, T/C [11]: 108% | viability, T/C [12]: 99.9% | viability, T/C [13]: 94.2% | viability, T/C [14]: 103% | viability, T/C [15]: 88.8% | viability, T/C [16]: 77.9% | viability, T/C [17]: 116% | viability, T/C [18]: 84% | viability, T/C [19]: 86.4% | viability, T/C [20]: 109% | viability, T/C [21]: 91.1% | viability, T/C [22]: 107% | viability, T/C [23]: 112% | viability, T/C [24]: 98.8% | viability, T/C [25]: 89.3% | viability, T/C [26]: 100% | viability, T/C [27]: 100% | viability, T/C [28]: 93.2% | viability, T/C [29]: 98.2% | viability, T/C [30]: 90.5% | viability, T/C [31]: 81.5% | viability, T/C [32]: 79.9% | viability, T/C [33]: 95.7% | viability, T/C [34]: 79.9% | viability, T/C [35]: 88.9% | viability, T/C [36]: 72.5%
